The source of these data is patent US20260226043A1, “POLYMORPHS OF THE MALEIC ACID SALT OF LINAPRAZAN GLURATE” (Cinclus Pharma Holding AB (publ), priority 2023, published 2026).

Data set [1] is described as follows: Thermogravimetric analysis (TGA).
Description: Analyses were performed on a PerkinElmer TGA7 instrument. A few mg of sample was gently charged into open Pt-pans and analysed by weight in a flow of dry nitrogen gas (20 mL/min), to ensure an inert atmosphere. The sample was scanned from 25 to 200° C. using a continuous scan speed of 10° C./min. The weight loss was calculated from 25° C. up to 145° C.
A short description of data set [2]: Gravimetric/dynamic vapour sorption (GVS/DVS).
Description: Analyses were performed on an SMS DVS-1 instrument. A few mg of the substance was added into an Al pan and exposed to stepwise RH changes during two consecutive cycles according to 20-80-0-90-0%, in steps of 10% RH, using open loop mode. The experiments were performed using a gas flow rate of 200 mL/min and at 25° C. The dm/dt criteria applied was 0.001 weight-%/min during a 5-minute window, with a maximum allowed time of 360 minutes and a minimum allowed time of 10 minutes for all steps.
The hygroscopicity of Form 1 (obtained from the synthesis described below in example 1) was investigated using GVS at 25° C.
Data set [3] in a line: Slurry experiments (solid form stability, XRPD). The data set is classed as physicochemical. As to the method:
Slurry experiments were performed in various solvents. The samples were slurried for different periods of time depending on temperature. […] The water-containing slurries were performed to investigate possible hydrate formation.
Details of all slurry experiments performed, including solvent(s) used, total concentration and final form by XRPD, are given in Table 1.
Approximately 30 mg of linaprazan glurate maleic acid salt was used for each experiment, together with 20 different solvents (pure and binary solvents) at room temperature, at 4° C., at 40° C., and at 60° C., unless indicated otherwise. […] The solid phase was isolated and analysed with XRPD. The sample run at fridge temperature (ca 4° C.) was analysed after 26 and 53 days of slurry. The samples run at RT were analysed after 26 days of slurry. The samples run at 40° C. were analysed after 6 and 12 days of slurry. The samples run at 60° C. were analysed after 1 day of slurry.

For data set [4] the following is noted: cited from earlier work.
For data set [5] the following is noted: free base Form A; cited from earlier work.
The conditions of data set [6]: cited from earlier work. The source holds these as a separate data set.
In data set [7] the test system is intragastric acidity. As to conditions: cited from earlier work.
For data set [8] the following is noted: Phase I and II studies; cited from earlier work.
For data set [9], the system named is gastric acid. To be noted: Phase I and II studies; cited from earlier work.
The nature of data set [10]: clinical. To be noted: human, in vivo. As to the method:
Linaprazan glurate is a prodrug of linaprazan, which was disclosed in WO 99/55706 and previously studied in Phase I and II studies. […] A clinical Phase I study has shown that administration of a single dose of linaprazan glurate can maintain the intragastric acidity above pH 4 for 24 hours. Linaprazan glurate is therefore tailored for patients with severe erosive gastroesophageal reflux disease (eGERD).
It is estimated that this requires a minimal plasma concentration (Cmin) of linaprazan of at least about 240 nmol/L after 22 hours. At such doses, a once daily oral administration of the formulation would be sufficient. In some embodiments, therefore, a single unit dose of a pharmaceutical composition of linaprazan glurate provides a Cmin of linaprazan in a human of at least about 240 nmol/L after 22 hours following oral administration of the pharmaceutical composition to said human. In other embodiments, a daily administration of two unit doses of a pharmaceutical composition of linaprazan glurate provides a Cmin of linaprazan in a human of at least about 240 nmol/L after 10 hours following oral administration of the last unit dose of the pharmaceutical composition to said human.

SMILES strings stand for the structures. Entries after “also recorded” stand apart in the source; their conditions may differ. Read-outs that look alike come from different tables or passages of the source. Marks after values point to notes of the source that are not given here.

In the case of `Cc1cccc(C)c1CNc1cc(C(=O)NCCOC(=O)CCCC(=O)O)cn2c(C)c(C)nc12.O=C(O)/C=C\C(=O)O` [Form 1, maleic acid salt of 5-{2-[({8-[(2,6-dimethylbenzyl)amino]-2,3-dimethylimidazo[1,2-a]pyridine-6-yl}carbonyl)-amino]ethoxy}-5-oxopentanoic acid], the “weight loss (TGA)” value in data set [1] was found to be 0.17%. Also, the hygroscopicity classification entry in data set [2] (GVS/DVS at 25° C.) is given as “slightly hygroscopic; also recorded: low hygroscopicity”. In data set [2] (at 80% RH, dynamic vapour sorption), the water uptake entry is “about 0.45%”. The uptake of water in data set [2] (humidity range 0 to 80% RH, GVS at 25° C.) was about 0.4%. Also, the Solid state form result is reported as “Form 1” in data set [3] (slurry in 1,4-dioxane, 63 mg/mL, 40° C., 6 and 12 days); “Form 1” in data set [3] (slurry in 1,4-dioxane:DMA 9:1, 103 mg/mL, RT, 26 days); “Form 1 + Crystalline” in data set [3] (slurry in 2-propanol, 56 mg/mL, 40° C., 6 and 12 days); “Form 1” in data set [3] (slurry in 2-propanol:DMA 9:1, 91 mg/mL, RT, 26 days); “Crystalline base form” in [3] (slurry in DMA, 890 mg/mL, RT, 26 days); “Form 1 + Crystalline” in data set [3] (slurry in DMA, 1369 mg/mL, 40° C., 6 and 12 days). Further, the Solid state form entry is recorded as “Form 1” in data set [3] (slurry in EtOAc, 36 mg/mL, 40° C., 6 and 12 days); “Form 1 + Crystalline” in [3] (slurry in EtOAc:DMA 9:1, 89 mg/mL, RT, 26 days); “Form 1 + Crystalline” in [3] (slurry in EtOH, 61 mg/mL, 40° C., 6 and 12 days); “Form 1” in data set [3] (slurry in EtOH, 61 mg/mL, RT, 26 days); “Form 1” in data set [3] (slurry in MIBK, 53 mg/mL, 40° C., 6 and 12 days); “Form 1” in [3] (slurry in MIBK, 62 mg/mL, 60° C., 1 day). For the same molecule, the Solid state form result in data set [3] (slurry in MIBK:DMA 9:1, 84 mg/mL, RT, 26 days) is “Form 1”; in [3] (slurry in MTBE, 68 mg/mL, 40° C., 6 and 12 days) it was “Form 1 + MTBE solvate”; in data set [3] (slurry in MTBE:DMA 9:1, 99 mg/mL, RT, 26 days, analysed also after 53 days), “Form 1 + MTBE solvate*”; in [3] (slurry in MeCN, 52 mg/mL, 40° C., 6 and 12 days), “Form 1”; in data set [3] (slurry in MeCN, 63 mg/mL, 60° C., 1 day), “Form 1”; in data set [3] (slurry in MeCN:DMA 9:1, 85 mg/mL, RT, 26 days) it was “Form 1 + Crystalline”. The Solid state form result in data set [3] (slurry in MeOH, 51 mg/mL, 40° C., 6 and 12 days) is “Crystalline base form”; in data set [3] (slurry in MeOH, 55 mg/mL, RT, 26 days), “Form 1 + Crystalline”; in data set [3] (slurry in MeOH:water 4:1, 52 mg/mL, ca 4° C., 26 and 53 days), “Form 1 + Crystalline”; in data set [3] (slurry in MeOH:water 4:1, 58 mg/mL, RT, 26 days), “Crystalline base form”; in [3] (slurry in THF, 53 mg/mL, 40° C., 6 and 12 days), “Form 1 + Crystalline”; in [3] (slurry in THF, 63 mg/mL, 60° C., 1 day) it was “Form 1”. The Solid state form entry is given as “Form 1 + Crystalline” in [3] (slurry in THF:DMA 9:1, 93 mg/mL, RT, 26 days); “Form 1**” in data set [3] (slurry in acetone, 29 mg/mL, RT, analysed after 21 days); “Form 1**” in data set [3] (slurry in benzyl alcohol, 332 mg/mL, RT, analysed after 21 days).

Consider `Cc1cccc(C)c1CNc1cc(C(=O)NCCOC(=O)CCCC(=O)O)cn2c(C)c(C)nc12` [Form A], for which, in [4] (pH 1), the solubility in water result is given as “only slightly soluble”. Further, in [4] (pH 6.8), the solubility in water entry is on record as “practically insoluble”. Besides, in [5], the hygroscopicity result is on record as “very low hygroscopicity”; the “physical and chemical stability” value was “good physical and chemical stability”.

Consider `Cc1cccc(C)c1CNc1cc(C(=O)NCCOC(=O)CCCC(=O)O)cn2c(C)c(C)nc12` [linaprazan glurate, 5-{2-[({8-[(2,6-dimethylbenzyl)amino]-2,3-dimethylimidazo[1,2-a]pyridine-6-yl}carbonyl)-amino]ethoxy}-5-oxopentanoic acid], for which the “plasma concentration of linaprazan glurate” value in [6] (after administration of linaprazan glurate) was “only very low and difficult to determine”. Further, the “half-life in the body” value in data set [6] (compared to linaprazan) is reported as “longer half-life in the body”. The metabolism entry in data set [6] (following absorption into the blood stream) was “quickly metabolized into linaprazan”. Moreover, the “control of the gastric acid production” value in [7] (compared to linaprazan) is listed as “total control of the gastric acid production for a longer time”. In addition, the “intragastric acidity (pH) maintained” value in data set [7] (single dose, maintained for 24 hours, clinical Phase I study) was over 4.

On to `Cc1cccc(C)c1CNc1cc(C(=O)NCCO)cn2c(C)c(C)nc12` [linaprazan], for which, in data set [8], the “elimination from the body” value is on record as “quickly eliminated from the body” and the tolerability result was “well tolerated”. Moreover, in data set [9], the “duration of acid inhibition” value was “too short duration of acid inhibition”; the “onset of action / effect” value is “fast onset of action and full effect at first dose”. The same molecule showed a concentration at 22 h in data set [10] of at least 240 nM.
